Test results taken from paper PMC9607644, “Glycoconjugation of Quinoline Derivatives Using the C-6 Position in Sugars as a Strategy for Improving the Selectivity and Cytotoxicity of Functionalized Compounds” (Molecules, 2022).

Legend:
MCF-7 cells = experiment: MTT cytotoxicity assay, MCF-7; type: cell-based, human; conditions: for IC50: Homo sapiens, MCF7, incubation time 72 h; for Selectivity Index (SI) MCF-7: IC50 NHDF-Neo / IC50 MCF-7, 72 h incubation; for inhibition of cell growth at the highest doses, MCF-7: 72 h
Description: An in vitro biological test package was performed for the obtained derivatives. […] The MTT test is a colorimetric method for detecting proliferating cells. It is based on the ability of the enzyme mitochondrial dehydrogenase to convert yellow tetrazole salt (MTT) into purple formazan. The amount of the product formed in the reaction, determined spectrophotometrically, is proportional to the number of living cells.
The in vitro cytotoxicity of the test compounds was determined by the MTT (3-[4,5–dimethylthiazol-2-yl]-2,5-diphenyltetrazolium bromide) test (Sigma-Aldrich, Taufkirchen, Germany) according to the manufacturer’s protocol. At the beginning, for each cell line were determined the optimal seeding densities to ensure exponential growth throughout the experimental period. The confluent layer of cells were trypsinized, collected, and suspended in a growth medium. […] Then, the culture medium was replaced with solutions of different concentrations of test compounds in a fresh medium. Stock solutions of test compounds were prepared in DMSO and diluted to final concentrations with appropriate volumes of the growth medium directly before the experiment. Cells suspended in a medium supplemented with 0.5% DMSO (the amount of DMSO necessary to dissolve the highest dose of the respective sample) were used as a control of the experiment. […] The compound-treated cells were incubated for a further 24–72 h. […] After this time, the MTT dye was carefully removed, and the acquired formazan crystals were dissolved by DMSO (Chempur, Piekary Śląskie, Poland). The proliferation was evaluated by measuring the formazan product’s absorbance at a wavelength of 570 nm with a microplate spectrophotometer (Epoch, BioTek, Winooski, VT, USA). All experiments were conducted in triplicate with four technical repeats for each tested concentration. Results were expressed as the percentage change in the viability of the test cells relative to the untreated control cells and calculated as the inhibitory concentration (IC50). […] The results are expressed as the average value ± standard deviation (SD).

NHDF-Neo cells = experiment: Annexin V-FITC/PI apoptosis flow cytometry, NHDF-Neo; type: cell-based; conditions: IC50 dose, 24 h
Text: This is important information from the point of view of drug design, as it provides detailed information on the cytotoxicity of a compound. Apoptosis is a natural biological process involving programmed cell death and plays an important role in maintaining correct homeostasis between cell proliferation and cell death. This is in contrast to necrosis, which is accompanied by acute inflammation, preceded by cell degradation due to the loss of the integrity of the cell membrane. It is possible to distinguish viable cells from apoptotic and necrotic cell fractions using Annexin V-FITC and Propidium Iodide (PI). Annexin V-FITC labels phosphatidylserine residues that, after the start of apoptosis, are located on the outer surface of the cell membrane, enabling the identification of cells in the early stages of apoptosis. PI binds stoichiometrically to intracellular DNA during late apoptosis and necrosis when the cell membrane has been damaged. This combination allows for the differentiation of early apoptotic (A+/P−), late apoptotic (A+/P+), necrosis (A−/P+), and normal (A−/P−) cells that can be quantified by flow cytometry. The experiments were performed on the HCT-116 and MCF-7 cancer cell lines and the NHDF-Neo healthy cell line. […] The results of the level of apoptosis induction by the tested compounds are presented in Figure 7 and in the Supplementary Materials (Figure S73).
The cell cycle and the type of cell death induced by the test compounds were measured by using flow cytometry according to the manufacturer’s protocol. The cells were seeded into 6-well plates at a density of 3 × 10^5 (HCT-116) or 4 × 10^5 (MCF-7, NHDF-Neo) per well (3 mL) and allowed to attach for 24 h under standard conditions with 5% CO2 at 37 °C. The following day, the medium was removed and cells were treated with solutions of test compounds in fresh medium at a dose equal to their IC50 values. Control cells were grown with fresh medium supplemented with 0.5% DMSO. After 24 h of incubation, the cells were collected by trypsinization. Then, samples were centrifuged (3 min, 2000 rpm, RT) and washed with PBS, after which the cells were centrifuged again (3 min, 2000 rpm, RT) and the supernatant was carefully removed. The resulting precipitate contained cells, which were used for flow cytometry experiments.
The fraction of dead cells after treatment with the test compounds were detected using the FITC Annexin-V Apoptosis Detection Kit with PI (BioLegend, San Diego, CA, USA). First, cells were suspended in 50 μL of cold Annexin-V Binding Buffer (BioLegend, San Diego, CA, USA) and incubated in the dark with 2.5 μL of antibody Annexin-V FITC and 10 μL of propidium iodide (PI) at 37 °C for 20 min. 250 μL of the Annexin-V Binding Buffer was then added and the samples were incubated in the dark on ice for 15 min. Cytometric analyses were performed using an Aria III flow cytometer (Becton Dickinson, Franklin Lakes, NJ, USA) with the FITC configuration (488 nm excitation; emission: LP mirror 503, BP filter 530/30) or PE configuration (547 nm excitation; emission: 585 nm) and at least 10,000 cells were counted.

HCT-116 cells = experiment: Annexin V-FITC/PI apoptosis flow cytometry, HCT-116; type: cell-based, human; conditions: IC50 dose, 24 h
Text: Apoptosis is a natural biological process involving programmed cell death and plays an important role in maintaining correct homeostasis between cell proliferation and cell death. This is in contrast to necrosis, which is accompanied by acute inflammation, preceded by cell degradation due to the loss of the integrity of the cell membrane. It is possible to distinguish viable cells from apoptotic and necrotic cell fractions using Annexin V-FITC and Propidium Iodide (PI). Annexin V-FITC labels phosphatidylserine residues that, after the start of apoptosis, are located on the outer surface of the cell membrane, enabling the identification of cells in the early stages of apoptosis. PI binds stoichiometrically to intracellular DNA during late apoptosis and necrosis when the cell membrane has been damaged. This combination allows for the differentiation of early apoptotic (A+/P−), late apoptotic (A+/P+), necrosis (A−/P+), and normal (A−/P−) cells that can be quantified by flow cytometry.
The cell cycle and the type of cell death induced by the test compounds were measured by using flow cytometry according to the manufacturer’s protocol. […] Control cells were grown with fresh medium supplemented with 0.5% DMSO. After 24 h of incubation, the cells were collected by trypsinization. Then, samples were centrifuged (3 min, 2000 rpm, RT) and washed with PBS, after which the cells were centrifuged again (3 min, 2000 rpm, RT) and the supernatant was carefully removed. The resulting precipitate contained cells, which were used for flow cytometry experiments.
The fraction of dead cells after treatment with the test compounds were detected using the FITC Annexin-V Apoptosis Detection Kit with PI (BioLegend, San Diego, CA, USA). […] 250 μL of the Annexin-V Binding Buffer was then added and the samples were incubated in the dark on ice for 15 min.

SMILES	IC50 (MCF-7 cells; MTT)	Selectivity Index (SI) MCF-7 (MCF-7 cells)	growth inhibitory activity in words, MCF-7 (MCF-7 cells; MTT)	cells in late apoptosis, NHDF-Neo (NHDF-Neo cells)	necrotic cells, NHDF-Neo (NHDF-Neo cells)	dead cell fraction, NHDF-Neo (NHDF-Neo cells)	apoptotic cells, HCT-116 (HCT-116 cells)	inhibition of cell growth at the highest doses, MCF-7 (MCF-7 cells; MTT)	normal cells remained, NHDF-Neo (NHDF-Neo cells)	apoptosis induction in words, HCT-116 (HCT-116 cells)
OC[C@H]1O[C@@H](n2cc(COc3cccc4cccnc34)nn2)[C@H](O)[C@@H](O)[C@@H]1O [Compound E-2, reference compound]	185 ± 2.21 µM	1.26	practically did not affect the cell viability	57%	9%					
O[C@@H]1[C@@H](O)[C@@H](O[C@H]2O[C@H](Cn3cc(COc4cccc5cccnc45)nn3)[C@@H](O)[C@H](O)[C@H]2O)O[C@H](Cn2cc(COc3cccc4cccnc34)nn2)[C@H]1O [Compound D-2]	34 ± 0.95 µM	2.08				51%	87%			
OC1O[C@H](Cn2cc(COc3cccc4cccnc34)nn2)[C@@H](O)[C@H](O)[C@H]1O (stereo partly shown) [Compound A-2]	54.9 ± 8.71 µM	5.78					46%	100%	95%	
CC(=O)OC[C@H]1O[C@@H](n2cc(COc3cccc4cccnc34)nn2)[C@H](OC(C)=O)[C@@H](OC(C)=O)[C@@H]1OC(C)=O [Compound E-1, reference compound]	57.7 ± 3.32 µM	0.96		61%	14%			100%		did not induce apoptosis
CC(=O)OC1O[C@H](Cn2cc(COc3cccc4cccnc34)nn2)[C@@H](OC(C)=O)[C@H](OC(C)=O)[C@H]1OC(C)=O (stereo partly shown) [Compound A-1]	52.8 ± 0.75 µM	2.46					29%	100%	98%	
